According to PMC12114846, “Interleukin-15Rα-Sushi-Fc Fusion Protein Co-Hitchhikes Interleukin-15 and Pheophorbide A for Cancer Photoimmunotherapy” (Pharmaceutics, 2025):

Experiments:
[1] = Plasma pharmacokinetics of PhA after i.v. injection; type: in vivo, BALB/c mice; details: 2.5 mg/kg of PhA, mice
Procedure: The free PhA formulation was prepared by dissolving PhA in 0.1% NaOH (w/v) via sonication to obtain a 4 mg/mL stock solution, followed by dilution with PBS to obtain the injection dose. An alkali solution can increase the solubility of pheophorbide A applied to photodynamic therapy. Blood samples were collected from the tail veins into heparin tubes at time points of 0.1, 0.5, 0.75, 1, 1.5, 2, 3, 4, and 5 h post-injection, respectively. PhA was extracted from plasma using a mixture of acetonitrile and methanol (1:1 v/v). The mixture was vortexed for 10 s, followed by centrifugation at 12,000 rpm for 10 min at 4 °C. The supernatant was transferred to a black 96-well plate, and the concentration of PhA was determined by the Hybrid Multi-Mode Microplate Reader (λex = 400 nm, λem = 656 nm).
(§1) Pharmacokinetic parameters including the elimination half-life (t1/2), the area under the concentration–time curve to the least measurable concentration (AUC0→n), the area under the moment curve (AUMC), the mean residence time (MRT), clearance (Cl), and the steady-state volume of distribution (Vss) were calculated using non-compartmental analysis.

[2] = Skin photosensitivity after xenon light; type: in vivo, BALB/c mice; details: 2.5 mg/kg of PhA i.v., xenon light 5 mW/cm^2 for 25 min at 24 h post-injection
Procedure: To evaluate the skin photosensitivity, healthy BALB/c mice were depilated and randomly divided into three groups. […] Mice injected with PBS were used as controls. At 24 h post-injection, all mice were exposed to a long-arc xenon lamp (5 mW/cm^2, 25 min), which is generally used in solar simulation systems, emitting a high-intensity radiant flux with a visible spectrum closely approximating that of unfiltered daylight. A 1.5 cm × 1.5 cm section of skin was collected from the dorsal areas of the mice for H&E staining.

[3] = molecular target: T1, rILR-Fc (Homo sapiens, UniProt Q13261); assay: Microscale thermophoresis of PhA with Cy5-labeled rILR-Fc; type: binding; details: MST, Cy5-labeled rILR-Fc 15 nM, PBS buffer
T1 construct: the human sushi domain (amino acids 1-77) of IL-15-Rα; His tag; made in house; host or cells: Pichia pastoris GS115
Procedure: The dissociation constant (KD) between PhA and rILR-Fc was measured by the microscale thermophoresis (MST) technique, according to our previously reported method. Briefly, PhA was dissolved in dimethyl sulfoxide (DMSO) and subjected to a series of dilutions to prepare ligand solutions ranging from 0.4 μM to 0.098 nM. Cy5-labeled rILR-Fc was prepared at a concentration of 15 nM and incubated with the ligand solutions for 10 min. The resulting samples were then loaded into capillaries (NanoTemper Technologies, Munich, Germany) for MST analysis.

[4] = tested on: orthotopic CT26-Luc tumors; assay: Antitumor effect, survival and rechallenge; details: PhA-containing groups + PDT; rILR-Fc/rIL-15 without laser; 2.5 mg/kg of PhA, 0.3 mg/kg of rIL-15; n = 8; PBS group 32 days
Procedure: For the laser treatment, the abdominal cavity of the mouse was opened under anesthesia; then, the tumor foci on the cecum were exposed and irradiated with a 660 nm diode laser (80 mW/cm^2) through a quartz optic fiber (0.9 mm diameter) for 10 min at 35 min post-injection. The abdominal cavity was sutured after the laser treatment. […] The tumor burden was monitored via the bioluminescence signal using an IVIS system after the i.p. injection of D-luciferin (15 mg/mL, 200 μL).
Age-matched naive male BALB/c mice were used as the controls. The tumor volume and the bioluminescence signals were recorded to assess the antitumor effects following different treatments. The death point was defined as when the tumor volume reached 2000 mm^3, calculated by the following equation:(3) Vt=L × W^2/2 where Vt is the tumor volume, L is the tumor length, and W is the tumor width.

[5] = tested on: s.c. CT26-Luc tumors; assay: Live fluorescence imaging of PhA in s.c. tumor; type: in vivo, BALB/c mice; details: post-injection, i.v., 2.5 mg/kg of PhA
Procedure: The tumor models were established according to our previous method. For the subcutaneous (s.c.) tumor model, 2 × 10^6 CT26-Luc cells in 50 μL PBS were implanted into the right axillary fossae of anesthetized male BALB/c mice. Orthotopic models were established through the injection of 2 × 10^6 CT26-Luc cells (20 μL PBS) into the subserosal layer of the cecum.
Live fluorescence imaging was conducted using the IVIS system (Caliper Life Sciences, USA) (λex = 675 nm, λem = 720 nm) at serial time points (18 min, 30 min, 45 min, 1 h, 1.5 h, 2 h, 3 h, 4 h, 6 h, 17 h, and 27 h) post-injection. The fluorescence intensity in the tumor region was quantified by deducting the fluorescence intensity of the mouse tumor before the administration of nanoparticles from that at each time point post-administration. […] The plasma, heart, liver, spleen, lung, kidney, lymph node, skin, and tumor were harvested for IVIS imaging (λex = 675 nm, λem = 720 nm). The tissue uptake of PhA was presented through the semi-quantitative analysis of the fluorescence intensity.

[6] = tested on: M-07e cells; assay: Proliferation of M-07e cells (WST-1); type: cell-based; details: for EC50: 72 h incubation, WST-1
Procedure: The protein of rIL-15 and rILR-Fc were analyzed by sodium dodecyl sulfate–polyacrylamide gel electrophoresis (SDS-PAGE) and a Western blot. The Western blot was performed according to our previously reported method. The primary antibody used in the Western blot was the his-tag mouse monoclonal antibody (1:5000, 66005-1-Ig, Proteintech, Wuhan, China), and the secondary antibody was horseradish peroxidase (HRP)-conjugated goat anti-mouse IgG (1:5000, 33201ES60, Yeasen, Shanghai, China). The biological activity of rIL-15 and rILR-Fc/rIL-15 was determined by their ability to stimulate the proliferation of M-07e cells.
The biological activity of the nanoparticles was determined by their ability to stimulate the proliferation of M-07e cells, as described in the Supplementary Materials. […]
gene fragment (ILR-Fc), which was then ligated into the liner pPIC9k vector. […]
Matrix-assisted laser desorption/ionization time-of-flight mass spectrometry (MALDI-TOF-MS) analysis was performed to calculate the molecular mass of rILR-Fc, with sinapic acid selected as the matrix. The released oligosaccharides were analyzed by sodium dodecyl sulfate-polyacrylamide gel electrophoresis (SDS-PAGE). […]
The biological activity of recombinant proteins or nanoparticles were determined by their ability to stimulate the proliferation of M-07e cells. […]
cells (10,000 cells/well) were plated in RPMI-1640 supplemented with 10% fetal bovine serum (FBS) in a 96-well plate and incubated with proteins (rIL-15, rILR-Fc/rIL-15, rIL-15Rα-Fc/rIL-15, rIL-15-wt, rILR-Fc/rIL-15-wt and rIL-15Rα-Fc/rIL-15-wt) at the specified concentration for 72 h at 37 °C. Cell proliferation was determined using the water-soluble tetrazolium 1 (WST-1) cell counting kit (Beyotime, Shanghai, China) following the manufacturer’s instructions. Similarity, the biological activity of nanoparticles was determined by incubated with nanoparticles at the specified concentration to stimulate the proliferation of M-07e cells. […]
Aﬃnity was measured by enzyme-linked immunosorbent assay (ELISA). […]

[7] = Serum pharmacokinetics of rIL-15 after i.v. injection (ELISA); type: in vivo, C57BL/6 mice; details: 0.3 mg/kg of rIL-15, mice
Procedure: For the rIL-15 group, blood was collected from the tail veins at time points of 5, 10, 15, 20, 30, 45, 60, 75, and 90 min post-injection, respectively. For the other groups, blood was collected at time points of 5, 10, 20, 30, 60, 90, 120, 180, 240, 300, and 360 min post-injection, respectively. The concentrations of rIL-15 in mouse sera were quantified by ELISA, as described above regarding the characterization of the nanoparticles.
as §1

T1 sequence (Q13261 with tags, fused parts or gaps limits assumed): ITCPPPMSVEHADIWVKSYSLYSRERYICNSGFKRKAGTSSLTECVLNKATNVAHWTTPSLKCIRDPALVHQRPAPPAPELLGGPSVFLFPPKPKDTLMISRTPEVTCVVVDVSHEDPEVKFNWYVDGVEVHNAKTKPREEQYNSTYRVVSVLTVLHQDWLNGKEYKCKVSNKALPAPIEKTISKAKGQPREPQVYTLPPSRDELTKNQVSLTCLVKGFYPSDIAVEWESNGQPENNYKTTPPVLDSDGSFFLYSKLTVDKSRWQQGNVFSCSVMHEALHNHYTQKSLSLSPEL

Compound: C=Cc1c(C)c2cc3nc(c4c5[nH]c(cc6nc(cc1[nH]2)C(C)=C6CC)c(C)c5C(=O)[C@@H]4C(=O)OC)[C@@H](CCC(=O)O)[C@@H]3C [PhA, pheophorbide A]
- AUMC of PhA [1]: 15.97 ± 4.162 μg/mL·h^2
- Cl of PhA [1]: 8.129 ± 1.527 (μg)/(μg/mL)/h
- Vss of PhA [1]: 18.20 ± 1.111 (μg)/(μg/mL)
- MRT ([1]; male, BALB/c, mouse, iv): 2.35 ± 0.315 h
- AUC ([1]; male, BALB/c, mouse, iv, read-out: AUC0→n of PhA): 6490 ± 1010 ng·h/mL
- half-life ([1]; male, BALB/c, mouse, iv, read-out: t1/2 of PhA (converted)): 1.76 ± 0.164 h
- skin after light exposure (H&E staining) [2]: remained unchanged after light exposure
- Kd [3]: 200 nM
- median survival time [4]: 42 days
- time of peak accumulation of PhA in the tumor [5]: 1.5 h

Compound: rIL-15-wt: recombinant wild type IL-15 obtained from Sino biological (10360-H07E)
- EC50 [6]: 3.26 nM

Compound: rIL-15: N72D-mutated human IL-15 produced in E. coli BL21 (DE3) cells
- AUC0→n of rIL-15 [7]: 664.4 ± 196.1 ng/mL·min (×10)
- AUMC of rIL-15 [7]: 544.5 ± 73.17 ng/mL·min^2 (×10^2)
- Cl of rIL-15 [7]: 5.766 ± 2.519 (μg)/(ng/mL)/min (×10^−4)
- MRT of rIL-15 [7]: 9.913 ± 2.956 min
- Vss of rIL-15 [7]: 6.351 ± 3.348 (μg)/(ng/mL) (×10^−3)
- t1/2 of rIL-15 [7]: 0.3373 ± 0.0195 h
- EC50 [6]: 0.92 nM
- EC50 fold smaller than that of rIL-15-wt ([6]; M-07e proliferation): ~ 3.5 fold
